In patent US7138361B2, “Herbicidal heterocycles” (E. I. du Pont de Nemours and Company, priority 2000, dated 2006):

Columns and labels:
Assay type in all cases: in vivo
[1] = tested on: morningglory (Ipomoea hederacea); experiment: Test C preemergence
Summary of the method: (§1)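 Visual injury scores of 0–100, with 100 meaning complete control, were given relative to controls after 12–14 days in the greenhouse. Treatments used a surfactant-containing non-phytotoxic solvent formulation, sprayed on seeded pots preemergence or on 1–4-leaf plants of 2–18 cm postemergence.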

kochia (Kochia scoparia) = experiment: Test C preemergence
Summary of the method: as §1

[2] = tested on: crabgrass (Digitaria sanguinalis); experiment: Test C preemergence
Summary of the method: as §1

[3] = tested on: goosegrass (Eleusine indica); experiment: Test C preemergence
Summary of the method: as §1

[4] = tested on: johnsongrass (Sorghum halepense); experiment: Test C preemergence
Summary of the method: as §1

[5] = tested on: velvetleaf (Abutilon theophrasti); experiment: Test C preemergence
Summary of the method: as §1

[6] = tested on: bermudagrass (Cynodon dactylon); experiment: Test C preemergence
Summary of the method: as §1

[7] = tested on: woolly cupgrass (Eriochloa villosa); experiment: Test C preemergence
Summary of the method: as §1

corn (Zea mays) = experiment: Test C preemergence
Summary of the method: as §1

Nightshade = experiment: Test C preemergence
[8] = tested on: giant foxtail (Setaria faberii); experiment: Test C preemergence
Summary of the method: as §1

Sunflower [9] = experiment: Test C preemergence
[10] = tested on: lambsquarters (Chenopodium album); experiment: Test C preemergence
Summary of the method: as §1

[11] = tested on: Surinam grass (Brachiaria decumbens); experiment: Test C preemergence
Summary of the method: as §1

[12] = tested on: yellow nutsedge (Cyperus esculentus); experiment: Test C preemergence
Summary of the method: as §1

[13] = tested on: pigweed (Amaranthus retroflexus); experiment: Test C preemergence
Summary of the method: as §1

[14] = tested on: cocklebur (Xanthium strumarium); experiment: Test C preemergence
Summary of the method: as §1

soybean (Glycine max) = experiment: Test C preemergence
Summary of the method: as §1

[15] = tested on: duck salad (Heteranthera limosa); experiment: Test C flooded paddy test; conditions: for Ducksalad plant response rating: Flooded Paddy, scale 0 to 100, 0 no effect, 100 complete control; for Plant response rating, Ducksalad: flooded paddy test, scale 0 to 100 (0 no effect, 100 complete control)
Summary of the method: (§2)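 2-leaf-stage plants, flooded paddy; treated; greenhouse 12–14 days; compared with controls by eye; rated 0–100 (0 none, 100 complete control).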

[16] = tested on: barnyardgrass (Echinochloa crus-galli); experiment: Test C flooded paddy test; conditions: for Barnyardgrass plant response rating: Flooded Paddy, scale 0 to 100, 0 no effect, 100 complete control; for Plant response rating, Barnyardgrass: flooded paddy test, scale 0 to 100 (0 no effect, 100 complete control)
Summary of the method: as §2

[17] = tested on: smallflower flatsedge (Cyperus difformis); experiment: Test C flooded paddy test; conditions: for Flatsedge plant response rating: Flooded Paddy, scale 0 to 100, 0 no effect, 100 complete control; for Plant response rating, Flatsedge: flooded paddy test, scale 0 to 100 (0 no effect, 100 complete control)
Summary of the method: as §2

Sunflower [18] = experiment: Test C preemergence; conditions: Rate 250 g/ha, visual evaluation after 12 to 14 days
[19] = Preemergence, Rate 500 g/ha, scale 0 to 100
[20] = Rate 62 g/ha, scale 0 to 100, 0 no effect, 100 complete control
[21] = preemergence, Rate 250 g/ha, visual evaluation after 12 to 14 days
[22] = preemergence, Rate 125 g/ha, scale 0 to 100, 0 no effect, 100 complete control

O=C1C(n2ccc(C3CCC3)n2)SCN1c1cccc(OC(F)F)c1 (centres unmarked) [Compound 45]
20: Plant response rating, Kochia (kochia (Kochia scoparia); [20]) | Plant response rating (0 to 100), Velvetleaf [5, 21] | Plant response rating, Sunflower (Sunflower [9]; [20]) | Plant response rating (0 to 100), Cocklebur [14, 21] | Plant response rating (0 to 100), Sunflower (Sunflower [18])
60: Plant response rating, Kochia (kochia (Kochia scoparia); [22]) | Plant response rating, Lambsquarters [10, 20] | Plant response rating (0 to 100), Nutsedge [12, 21]
30: Plant response rating, Velvetleaf [5, 19] | Plant response rating, Cupgrass, Woolly [7, 22] | Plant response rating, Foxtail, Giant [8, 20] | Plant response rating, Pigweed [13, 19]
70: Plant response rating (0 to 100), Cupgrass, Woolly [7, 21] | Plant response rating, Sunflower (Sunflower [9]; Rate 500 g/ha, scale 0 to 100) | Plant response rating, Surinam grass [11, 19] | Plant response rating, Barnyardgrass ([16]; Rate 62 g/ha)
100: Plant response rating, Kochia (kochia (Kochia scoparia); [19]) | Plant response rating, Crabgrass [2, 19] | Plant response rating (0 to 100), Crabgrass [2, 21] | Plant response rating, Crabgrass [2, 22] | Plant response rating, Goosegrass [3, 19] | Plant response rating (0 to 100), Goosegrass [3, 21] | Plant response rating, Goosegrass [3, 22] | Plant response rating, Johnsongrass [4, 19] | Plant response rating, Bermudagrass [6, 19] | Plant response rating (0 to 100 where 0 is no effect and 100 is complete control), Bermudagrass [6, 21] | Plant response rating, Cupgrass, Woolly [7, 19] | Plant response rating, Lambsquarters [10, 19] | Plant response rating (0 to 100), Lambsquarters [10, 21] | Plant response rating, Lambsquarters [10, 22] | Plant response rating, Nutsedge [12, 19] | Ducksalad plant response rating ([15]; Rate 250 g/ha) | Ducksalad plant response rating ([15]; Rate 500 g/ha) | Barnyardgrass plant response rating ([16]; Rate 250 g/ha) | Barnyardgrass plant response rating ([16]; Rate 500 g/ha) | Plant response rating, Barnyardgrass ([16]; Rate 125 g/ha) | Flatsedge plant response rating ([17]; Rate 250 g/ha) | Flatsedge plant response rating ([17]; Rate 500 g/ha) | Plant response rating, Flatsedge ([17]; Rate 125 g/ha)
50: Plant response rating (0 to 100), Johnsongrass [4, 21] | Plant response rating, Bermudagrass [6, 20] | Plant response rating, Ducksalad ([15]; Rate 62 g/ha)
40: Plant response rating, Nightshade (Nightshade; Rate 500 g/ha, scale 0 to 100) | Plant response rating (0 to 100), Foxtail, Giant [8, 21] | Plant response rating, Foxtail, Giant [8, 22] | Plant response rating (0 to 100), Surinam grass [11, 21]
80: Plant response rating, Ducksalad ([15]; Rate 125 g/ha)
90: Plant response rating (0 to 100), Kochia (kochia (Kochia scoparia); [21]) | Plant response rating, Crabgrass [2, 20] | Plant response rating, Goosegrass [3, 20] | Plant response rating, Bermudagrass [6, 22] | Plant response rating, Foxtail, Giant [8, 19] | Plant response rating, Cocklebur [14, 19] | Plant response rating, Flatsedge ([17]; Rate 62 g/ha)
0: Plant response rating, Morningglory [1, 19] | Plant response rating, Morningglory [1, 20] | Plant response rating (0 to 100), Morningglory [1, 21] | Plant response rating, Morningglory [1, 22] | Plant response rating, Johnsongrass [4, 20] | Plant response rating, Johnsongrass [4, 22] | Plant response rating, Velvetleaf [5, 20] | Plant response rating, Velvetleaf [5, 22] | Plant response rating, Cupgrass, Woolly [7, 20] | Plant response rating, Corn (corn (Zea mays); [19]) | Plant response rating, Corn (corn (Zea mays); [20]) | Plant response rating (0 to 100), Corn (corn (Zea mays); [21]) | Plant response rating, Corn (corn (Zea mays); [22]) | Plant response rating, Nightshade (Nightshade; [20]) | Plant response rating, Nightshade (Nightshade; Rate 125 g/ha, scale 0 to 100, 0 no effect, 100 complete control) | Plant response rating, Surinam grass [11, 20] | Plant response rating, Surinam grass [11, 22] | Plant response rating, Nutsedge [12, 22] | Plant response rating, Pigweed [13, 20] | Plant response rating (0 to 100), Pigweed [13, 21] | Plant response rating, Pigweed [13, 22] | Plant response rating, Cocklebur [14, 22] | Plant response rating, Soybean (soybean (Glycine max); [19]) | Plant response rating, Soybean (soybean (Glycine max); [20]) | Plant response rating (0 to 100), Soybean (soybean (Glycine max); [21]) | Plant response rating, Soybean (soybean (Glycine max); [22])
